Columns and labels:
[1] = test system: SMN2 minigene mRNA (SMN2-A minigene) in HEK293H cells; experiment: SMN2 minigene mRNA splicing RT-qPCR assay in cultured cells; type: cell-based, human; conditions: Homo sapiens, HEK293-H; concentration increasing full length SMN2 mRNA 1.5-fold relative to vehicle-treated cells; HEK293H cells with SMN2-A minigene, 24 hours, 7-point concentration data; read-out: EC1.5x for production of full length SMN2 mRNA
How it was run: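 Cells are seeded, left to attach 4-6 h, then dosed with test compound across seven concentrations and incubated 24 h. Lysates undergo RT-qPCR with primers/probe specific to the exon 7-containing minigene transcript, co-amplified with GAPDH. Fold change over vehicle is calculated, and EC1.5× marks the 1.5-fold point.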

[2] = test system: Smn protein in SMA patient fibroblast cells (GM03813); experiment: Smn protein assay in cultured cells (SMN HTRF); type: cell-based, human; conditions: SMA patient fibroblast cells, 48 hours; for EC1.5x for Smn protein expression: 7-point concentration curve, SMN HTRF, concentration producing 1.5 times Smn protein vs DMSO vehicle control; for maximum fold (Fold) increase of Smn protein: 7-point concentration data, fold relative to vehicle control
How it was run: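 Patient-derived SMA fibroblasts are plated, given compound for 48 h, then lysed in RIPA buffer with protease inhibitors. Lysate Smn is detected by an anti-SMN d2/kryptate HTRF pair incubated overnight. The normalized ΔF is divided by the vehicle ΔF to give fold change, from which EC1.5× and maximum fold are taken.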

Row | SMILES | melting point | EC (1.5-fold increase) [1] | EC1.5x for Smn protein expression [2] | maximum fold (Fold) increase of Smn protein [2]
1 | CCc1cc(-c2cc(=O)n3cc(N4CCNCC4)ccc3n2)cn2cc(C)nc12 [Compound 637, 2-(8-ethyl-2-methylimidazo[1,2-a]pyridin-6-yl)-7-(piperazin-1-yl)-4H-pyrido[1,2-a]pyrimidin-4-one] | 264 to 271 °C | < 0.1 µM | **** (an EC1.5x≤0.3 μM is indicated by four stars (****)) | ***** (a fold increase >1.65 is indicated by five stars (*****))
2 | CCc1cc(-c2cc(=O)n3cc(N4CCN[C@H](C)C4)ccc3n2)cn2cc(C)nc12 [Compound 638, 2-(8-ethyl-2-methylimidazo[1,2-a]pyridin-6-yl)-7-[(3R)-3-methylpiperazin-1-yl]-4H-pyrido[1,2-a]pyrimidin-4-one] | 230 to 234 °C | < 0.1 µM | **** (an EC1.5x≤0.3 μM is indicated by four stars (****)) | ***** (a fold increase >1.65 is indicated by five stars (*****))
3 | CCc1cc(-c2cc(=O)n3cc(N4CCN[C@@H](C)C4)ccc3n2)cn2cc(C)nc12 [Compound 639, 2-(8-ethyl-2-methylimidazo[1,2-a]pyridin-6-yl)-7-[(3S)-3-methylpiperazin-1-yl]-4H-pyrido[1,2-a]pyrimidin-4-one] | 232 to 236 °C | < 0.1 µM | **** (an EC1.5x≤0.3 μM is indicated by four stars (****)) | ***** (a fold increase >1.65 is indicated by five stars (*****))
4 | Cc1cn2nc(-c3cc(=O)n4cc(C5CCN(C(C)C)CC5)ccc4n3)cc2c(C)n1 [Compound 640, 2-(4,6-dimethylpyrazolo[1,5-a]pyrazin-2-yl)-7-[1-(propan-2-yl)piperidin-4-yl]-4H-pyrido[1,2-a]pyrimidin-4-one] | 196 to 198 °C | < 0.1 µM | **** (an EC1.5x≤0.3 μM is indicated by four stars (****)) | **** (a fold increase between >1.5 and ≤1.65 is indicated by four stars (****))
5 | Cc1cn2nc(-c3cc(=O)n4cc(C5CCN(C6CCC6)CC5)ccc4n3)cc2c(C)n1 [Compound 642, 7-(1-cyclobutylpiperidin-4-yl)-2-(4,6-dimethylpyrazolo[1,5-a]pyrazin-2-yl)-4H-pyrido[1,2-a]pyrimidin-4-one] | 189 to 191 °C | < 0.1 µM | **** (an EC1.5x≤0.3 μM is indicated by four stars (****)) | ***** (a fold increase >1.65 is indicated by five stars (*****))
6 | CCc1cc(-c2cc(=O)n3cc(N4CCN(CCO)CC4)ccc3n2)cn2cc(C)nc12 [Compound 647, 2-(8-ethyl-2-methylimidazo[1,2-a]pyridin-6-yl)-7-[4-(2-hydroxyethyl)piperazin-1-yl]-4H-pyrido[1,2-a]pyrimidin-4-one] | 248 to 253 °C | < 0.1 µM | **** (an EC1.5x≤0.3 μM is indicated by four stars (****)) | ***** (a fold increase >1.65 is indicated by five stars (*****))
7 | CCc1cc(-c2cc(=O)n3cc(N4CCN(C5CCC5)CC4)ccc3n2)cn2cc(C)nc12 [Compound 648, 7-(4-cyclobutylpiperazin-1-yl)-2-(8-ethyl-2-methylimidazo[1,2-a]pyridin-6-yl)-4H-pyrido[1,2-a]pyrimidin-4-one] | 274 to 279 °C | < 0.1 µM | **** (an EC1.5x≤0.3 μM is indicated by four stars (****)) | ***** (a fold increase >1.65 is indicated by five stars (*****))

Continued, in another order:

Row | melting point | SMILES | EC (1.5-fold increase) [1] | EC1.5x for Smn protein expression [2] | maximum fold (Fold) increase of Smn protein [2]
8 | 202 to 204 °C | CCc1nc(C)cn2nc(-c3cc(=O)n4cc(N5CCN[C@@H](C)C5)ccc4n3)cc12 [Compound 635, 2-(4-ethyl-6-methylpyrazolo[1,5-a]pyrazin-2-yl)-7-[(3S)-3-methylpiperazin-1-yl]-4H-pyrido[1,2-a]pyrimidin-4-one] | < 0.1 µM | **** (an EC1.5x≤0.3 μM is indicated by four stars (****)) | ***** (a fold increase >1.65 is indicated by five stars (*****))
9 | 175 to 180 °C | CCc1nc(C)cn2nc(-c3cc(=O)n4cc(N5CCCN(C)CC5)ccc4n3)cc12 [Compound 636, 2-(4-ethyl-6-methylpyrazolo[1,5-a]pyrazin-2-yl)-7-(4-methyl-1,4-diazepan-1-yl)-4H-pyrido[1,2-a]pyrimidin-4-one] | < 0.1 µM | **** (an EC1.5x≤0.3 μM is indicated by four stars (****)) | ***** (a fold increase >1.65 is indicated by five stars (*****))
10 | 180 to 183 °C | Cc1cn2nc(-c3cc(=O)n4cc(C5CCN(C6CC6)CC5)ccc4n3)cc2c(C)n1 [Compound 641, 7-(1-cyclopropylpiperidin-4-yl)-2-(4,6-dimethylpyrazolo[1,5-a]pyrazin-2-yl)-4H-pyrido[1,2-a]pyrimidin-4-one] | < 0.1 µM | **** (an EC1.5x≤0.3 μM is indicated by four stars (****)) | ***** (a fold increase >1.65 is indicated by five stars (*****))
11 | 242 to 244 °C | CCc1nc(C)cn2nc(-c3cc(=O)n4cc(N5CCN(C(C)C)[C@H](C)C5)ccc4n3)cc12 [Compound 643, 2-(4-ethyl-6-methylpyrazolo[1,5-a]pyrazin-2-yl)-7-[(3R)-3-methyl-4-(propan-2-yl)piperazin-1-yl]-4H-pyrido[1,2-a]pyrimidin-4-one] | 0.1 to 0.3 µM | *** (an EC1.5× between >0.3 μM and ≤1 μM is indicated by three stars (***)) | ***** (a fold increase >1.65 is indicated by five stars (*****))
12 | 244 to 247 °C | CCc1nc(C)cn2nc(-c3cc(=O)n4cc(N5CCN(C6CC6)[C@H](C)C5)ccc4n3)cc12 [Compound 644, 7-[(3R)-4-cyclopropyl-3-methylpiperazin-1-yl]-2-(4-ethyl-6-methylpyrazolo[1,5-a]pyrazin-2-yl)-4H-pyrido[1,2-a]pyrimidin-4-one] | 0.1 to 0.3 µM | *** (an EC1.5× between >0.3 μM and ≤1 μM is indicated by three stars (***)) | ***** (a fold increase >1.65 is indicated by five stars (*****))
13 | 261 to 264 °C | CCc1nc(C)cn2nc(-c3cc(=O)n4cc(N5CCN(C6CCC6)[C@H](C)C5)ccc4n3)cc12 [Compound 645, 7-[(3R)-4-cyclobutyl-3-methylpiperazin-1-yl]-2-(4-ethyl-6-methylpyrazolo[1,5-a]pyrazin-2-yl)-4H-pyrido[1,2-a]pyrimidin-4-one] | < 0.1 µM | **** (an EC1.5x≤0.3 μM is indicated by four stars (****)) | ***** (a fold increase >1.65 is indicated by five stars (*****))
14 | 216 to 219 °C | CCc1nc(C)cn2nc(-c3cc(=O)n4cc(N5CCN(C6COC6)[C@H](C)C5)ccc4n3)cc12 [Compound 646, 2-(4-ethyl-6-methylpyrazolo[1,5-a]pyrazin-2-yl)-7-[(3R)-3-methyl-4-(oxetan-3-yl)piperazin-1-yl]-4H-pyrido[1,2-a]pyrimidin-4-one] | 0.3 to 1 µM | ** (an EC1.5× between >1 μM and ≤3 μM is indicated by two stars (**)) | ***** (a fold increase >1.65 is indicated by five stars (*****))
15 | 217 to 220 °C | CCc1cc(-c2cc(=O)n3cc(N4CCN(CCO)[C@H](C)C4)ccc3n2)cn2cc(C)nc12 [Compound 649, 2-(8-ethyl-2-methylimidazo[1,2-a]pyridin-6-yl)-7-[(3R)-4-(2-hydroxyethyl)-3-methylpiperazin-1-yl]-4H-pyrido[1,2-a]pyrimidin-4-one] | < 0.1 µM | **** (an EC1.5x≤0.3 μM is indicated by four stars (****)) | ***** (a fold increase >1.65 is indicated by five stars (*****))
16 | 209 to 212 °C | CCc1cc(-c2cc(=O)n3cc(N4CCN(C5CCC5)[C@H](C)C4)ccc3n2)cn2cc(C)nc12 [Compound 650, 7-[(3R)-4-cyclobutyl-3-methylpiperazin-1-yl]-2-(8-ethyl-2-methylimidazo[1,2-a]pyridin-6-yl)-4H-pyrido[1,2-a]pyrimidin-4-one] | < 0.1 µM | **** (an EC1.5x≤0.3 μM is indicated by four stars (****)) | ***** (a fold increase >1.65 is indicated by five stars (*****))
17 | 220 to 223 °C | CCc1cc(-c2cc(=O)n3cc(N4CCN(CCO)[C@@H](C)C4)ccc3n2)cn2cc(C)nc12 [Compound 651, 2-(8-ethyl-2-methylimidazo[1,2-a]pyridin-6-yl)-7-[(3S)-4-(2-hydroxyethyl)-3-methylpiperazin-1-yl]-4H-pyrido[1,2-a]pyrimidin-4-one] | < 0.1 µM | **** (an EC1.5x≤0.3 μM is indicated by four stars (****)) | ***** (a fold increase >1.65 is indicated by five stars (*****))
